The results in this text go back to ChEMBL document CHEMBL4028801, “A multifactorial approach to hepatobiliary transporter assessment enables improved therapeutic compound development” (Toxicol Sci, 2013).

Some results are limits rather than exact numbers.

For data set [1], the target named is T1, ATP-binding cassette sub-family C member 4 (Homo sapiens, UniProt O15439).
T1 sequence (O15439 whole entry): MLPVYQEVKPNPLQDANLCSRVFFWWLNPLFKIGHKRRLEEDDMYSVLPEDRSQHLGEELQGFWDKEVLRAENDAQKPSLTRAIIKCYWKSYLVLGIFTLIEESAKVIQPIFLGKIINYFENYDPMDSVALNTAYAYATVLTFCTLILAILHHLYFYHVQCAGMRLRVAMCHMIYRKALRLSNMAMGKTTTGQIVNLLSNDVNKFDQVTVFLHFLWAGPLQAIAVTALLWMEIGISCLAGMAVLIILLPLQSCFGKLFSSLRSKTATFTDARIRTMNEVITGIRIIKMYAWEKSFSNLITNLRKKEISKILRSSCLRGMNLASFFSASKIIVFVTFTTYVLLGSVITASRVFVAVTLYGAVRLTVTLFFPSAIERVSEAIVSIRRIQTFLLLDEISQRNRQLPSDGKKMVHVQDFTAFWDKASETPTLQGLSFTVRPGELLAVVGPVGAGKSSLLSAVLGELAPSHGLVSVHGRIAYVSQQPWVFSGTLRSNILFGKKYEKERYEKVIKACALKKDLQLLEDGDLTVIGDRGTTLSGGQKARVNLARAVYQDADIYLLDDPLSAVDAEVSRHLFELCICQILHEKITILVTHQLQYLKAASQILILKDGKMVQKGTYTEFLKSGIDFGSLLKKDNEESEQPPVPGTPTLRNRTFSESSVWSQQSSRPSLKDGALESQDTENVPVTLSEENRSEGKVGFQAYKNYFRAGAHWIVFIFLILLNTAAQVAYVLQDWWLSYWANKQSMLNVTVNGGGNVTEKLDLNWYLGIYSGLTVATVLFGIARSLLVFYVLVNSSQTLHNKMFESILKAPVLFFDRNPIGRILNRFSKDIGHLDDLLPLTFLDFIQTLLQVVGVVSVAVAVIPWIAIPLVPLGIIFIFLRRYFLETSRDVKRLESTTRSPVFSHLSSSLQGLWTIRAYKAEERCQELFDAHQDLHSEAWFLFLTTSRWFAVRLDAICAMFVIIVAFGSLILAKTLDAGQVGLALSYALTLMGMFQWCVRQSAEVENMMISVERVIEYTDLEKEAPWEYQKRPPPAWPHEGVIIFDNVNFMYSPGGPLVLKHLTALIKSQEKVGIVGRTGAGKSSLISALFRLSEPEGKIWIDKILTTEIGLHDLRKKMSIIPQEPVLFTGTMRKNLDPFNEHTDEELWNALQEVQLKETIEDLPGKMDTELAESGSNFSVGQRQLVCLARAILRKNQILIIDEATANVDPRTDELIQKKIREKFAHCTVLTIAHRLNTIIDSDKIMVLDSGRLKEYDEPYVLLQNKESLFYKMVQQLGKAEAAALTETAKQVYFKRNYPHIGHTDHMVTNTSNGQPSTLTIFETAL
Put plainly: Inhibition of human MRP4 overexpressed in Sf9 cell membrane vesicles assessed as uptake of [3H]-estradiol-17beta-D-glucuronide in presence of ATP and GSH measured after 20 mins by membrane vesicle transport assay. The data set is classed as ADME, cell-based.

In data set [2] the target is ATP-binding cassette sub-family C member 2 (Homo sapiens, UniProt Q92887). Put plainly: Inhibition of human MRP2 overexpressed in Sf9 cell membrane vesicles assessed as uptake of [3H]-estradiol-17beta-D-glucuronide in presence of ATP and GSH measured after 20 mins by membrane vesicle transport assay.
Sequence of ATP-binding cassette sub-family C member 2 (Q92887 whole entry): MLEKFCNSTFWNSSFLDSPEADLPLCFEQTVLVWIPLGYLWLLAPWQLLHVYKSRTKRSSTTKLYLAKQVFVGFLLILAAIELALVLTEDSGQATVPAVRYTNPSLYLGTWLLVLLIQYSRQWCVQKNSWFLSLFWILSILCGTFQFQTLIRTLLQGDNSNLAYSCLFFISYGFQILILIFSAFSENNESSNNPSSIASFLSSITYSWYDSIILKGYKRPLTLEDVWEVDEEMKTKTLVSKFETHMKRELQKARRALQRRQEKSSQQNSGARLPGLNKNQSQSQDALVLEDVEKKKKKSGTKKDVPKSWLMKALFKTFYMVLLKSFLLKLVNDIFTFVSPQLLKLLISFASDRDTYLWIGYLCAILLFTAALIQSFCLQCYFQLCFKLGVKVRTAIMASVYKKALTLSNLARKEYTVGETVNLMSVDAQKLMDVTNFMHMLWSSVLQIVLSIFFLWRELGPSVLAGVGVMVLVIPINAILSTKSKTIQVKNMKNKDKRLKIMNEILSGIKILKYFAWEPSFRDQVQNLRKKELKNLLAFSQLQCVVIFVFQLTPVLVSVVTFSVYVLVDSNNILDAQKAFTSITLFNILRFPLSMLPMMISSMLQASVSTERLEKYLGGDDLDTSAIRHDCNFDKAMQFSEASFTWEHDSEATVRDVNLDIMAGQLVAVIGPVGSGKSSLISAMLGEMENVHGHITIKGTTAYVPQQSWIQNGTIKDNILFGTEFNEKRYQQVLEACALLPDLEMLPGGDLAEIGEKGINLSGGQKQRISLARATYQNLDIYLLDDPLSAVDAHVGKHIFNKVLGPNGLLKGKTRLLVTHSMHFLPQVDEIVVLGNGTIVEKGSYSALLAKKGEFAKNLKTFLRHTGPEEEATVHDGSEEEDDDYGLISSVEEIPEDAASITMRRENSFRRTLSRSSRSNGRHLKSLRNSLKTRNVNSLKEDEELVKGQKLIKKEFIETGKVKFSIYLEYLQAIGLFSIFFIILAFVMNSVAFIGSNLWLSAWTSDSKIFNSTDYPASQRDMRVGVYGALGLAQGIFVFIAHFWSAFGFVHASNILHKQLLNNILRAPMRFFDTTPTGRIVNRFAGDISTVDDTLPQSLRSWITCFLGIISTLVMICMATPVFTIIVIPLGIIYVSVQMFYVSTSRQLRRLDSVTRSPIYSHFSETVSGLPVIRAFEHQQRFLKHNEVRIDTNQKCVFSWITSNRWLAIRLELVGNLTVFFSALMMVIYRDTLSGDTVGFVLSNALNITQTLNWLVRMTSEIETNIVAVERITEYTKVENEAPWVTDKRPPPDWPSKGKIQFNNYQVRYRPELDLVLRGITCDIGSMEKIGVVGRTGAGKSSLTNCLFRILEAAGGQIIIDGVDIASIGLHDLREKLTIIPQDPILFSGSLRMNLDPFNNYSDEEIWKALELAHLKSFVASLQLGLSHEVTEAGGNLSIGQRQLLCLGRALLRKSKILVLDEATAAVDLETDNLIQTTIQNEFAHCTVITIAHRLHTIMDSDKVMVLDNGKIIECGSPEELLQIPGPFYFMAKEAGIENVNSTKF
Data set [3] deals with ATP-binding cassette sub-family C member 3 (Homo sapiens, UniProt O15438). Briefly: Inhibition of human MRP3 overexpressed in Sf9 insect cell membrane vesicles assessed as uptake of [3H]-estradiol-17beta-D-glucuronide in presence of ATP and GSH measured after 10 mins by membrane vesicle transport assay. The data set is classed as ADME, cell-based.
Sequence of ATP-binding cassette sub-family C member 3 (O15438 whole entry): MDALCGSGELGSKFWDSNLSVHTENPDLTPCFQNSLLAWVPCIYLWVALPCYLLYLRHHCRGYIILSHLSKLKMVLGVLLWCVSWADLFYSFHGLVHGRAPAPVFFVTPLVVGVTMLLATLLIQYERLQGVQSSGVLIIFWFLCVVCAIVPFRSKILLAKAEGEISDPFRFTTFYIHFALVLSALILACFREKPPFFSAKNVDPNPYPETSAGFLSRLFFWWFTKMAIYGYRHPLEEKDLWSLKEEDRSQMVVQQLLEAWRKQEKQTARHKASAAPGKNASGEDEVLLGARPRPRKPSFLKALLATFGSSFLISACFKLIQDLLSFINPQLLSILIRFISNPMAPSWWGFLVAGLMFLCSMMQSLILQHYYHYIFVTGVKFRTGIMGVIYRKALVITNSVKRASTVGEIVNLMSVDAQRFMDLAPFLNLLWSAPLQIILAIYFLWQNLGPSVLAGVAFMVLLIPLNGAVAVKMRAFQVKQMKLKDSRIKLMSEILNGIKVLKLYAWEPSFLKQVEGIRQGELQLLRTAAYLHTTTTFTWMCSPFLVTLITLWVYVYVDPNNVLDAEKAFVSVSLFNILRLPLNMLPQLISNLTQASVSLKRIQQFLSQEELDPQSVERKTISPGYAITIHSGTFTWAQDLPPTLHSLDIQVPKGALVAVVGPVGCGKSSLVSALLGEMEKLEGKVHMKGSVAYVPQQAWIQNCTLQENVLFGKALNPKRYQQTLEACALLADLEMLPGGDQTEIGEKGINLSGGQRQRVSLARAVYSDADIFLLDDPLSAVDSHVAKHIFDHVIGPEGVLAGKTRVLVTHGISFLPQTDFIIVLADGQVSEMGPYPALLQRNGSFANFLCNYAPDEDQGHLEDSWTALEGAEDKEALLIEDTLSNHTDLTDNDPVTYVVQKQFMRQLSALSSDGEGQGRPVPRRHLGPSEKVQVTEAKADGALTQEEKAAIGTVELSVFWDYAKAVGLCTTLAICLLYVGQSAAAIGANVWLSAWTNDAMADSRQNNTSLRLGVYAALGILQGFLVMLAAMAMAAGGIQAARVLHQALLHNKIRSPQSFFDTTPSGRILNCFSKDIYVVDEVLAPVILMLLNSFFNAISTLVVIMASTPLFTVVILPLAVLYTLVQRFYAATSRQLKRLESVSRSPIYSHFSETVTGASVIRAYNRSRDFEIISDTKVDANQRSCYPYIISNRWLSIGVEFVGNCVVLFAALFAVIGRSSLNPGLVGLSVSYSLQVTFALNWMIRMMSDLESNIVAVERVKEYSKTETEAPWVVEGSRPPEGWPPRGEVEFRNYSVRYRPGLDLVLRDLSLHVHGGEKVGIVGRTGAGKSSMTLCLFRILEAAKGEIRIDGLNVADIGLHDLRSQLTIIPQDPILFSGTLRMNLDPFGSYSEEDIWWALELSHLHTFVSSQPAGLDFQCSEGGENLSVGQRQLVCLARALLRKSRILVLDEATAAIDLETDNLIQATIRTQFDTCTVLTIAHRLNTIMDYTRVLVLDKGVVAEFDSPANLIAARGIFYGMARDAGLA
The nature of data set [4]: AUC in human at 40 to 80 mg, po TID after 8 hrs. The data set is classed as ADME, organism-based. To be noted: in vivo.
The nature of data set [5]: Drug concentration at steady state in human at 40 to 80 mg, po TID after 8 hrs. The data set is classed as ADME, organism-based. As to conditions: in vivo, read-out: Css.
Data set [6] in a line: Ratio of drug concentration at steady state in human at 40 to 80 mg, po TID after 8 hrs to IC50 for human BSEP overexpressed in Sf9 insect cells. The data set is classed as ADME, organism-based. To be noted: in vivo.
A short description of data set [7]: Ratio of drug concentration at steady state in human at 40 to 80 mg, po TID after 8 hrs to IC50 for human MRP4 overexpressed in Sf9 insect cells. The data set is classed as ADME, organism-based. As to conditions: in vivo.
Data set [8] in a line: Drug concentration at steady state in human at 1.25 to 25 mg, po QD after 24 hrs. The data set is classed as ADME, organism-based. As to conditions: in vivo, read-out: Css.
The nature of data set [9]: AUC in human at 1.25 to 25 mg, po QD after 24 hrs. The data set is classed as ADME, organism-based. To be noted: in vivo.
Data set [10] is described as follows: AUC in human at 200 mg, po Q3h measured after 3 hrs. More on the design: dose 200 mg, time < 3 hr, route oral. The data set is classed as ADME, organism-based. To be noted: in vivo.
The nature of data set [11]: Ratio of drug concentration at steady state in human at 200 mg, po Q3h measured after 3 hrs to IC50 for human MRP4 overexpressed in Sf9 insect cells. The data set is classed as ADME, organism-based. To be noted: in vivo.
A short description of data set [12]: Drug concentration at steady state in human at 200 mg, po Q3h measured after 3 hrs. To be noted: in vivo, read-out: Css. The data set is classed as ADME, organism-based.
Data set [13] deals with Bile salt export pump (Homo sapiens, UniProt O95342). Put plainly: Inhibition of human BSEP overexpressed in Sf9 cell membrane vesicles assessed as uptake of [3H]-taurocholate in presence of ATP measured after 15 to 20 mins by membrane vesicle transport assay. The data set is classed as ADME, cell-based.
Sequence of Bile salt export pump (O95342 whole entry): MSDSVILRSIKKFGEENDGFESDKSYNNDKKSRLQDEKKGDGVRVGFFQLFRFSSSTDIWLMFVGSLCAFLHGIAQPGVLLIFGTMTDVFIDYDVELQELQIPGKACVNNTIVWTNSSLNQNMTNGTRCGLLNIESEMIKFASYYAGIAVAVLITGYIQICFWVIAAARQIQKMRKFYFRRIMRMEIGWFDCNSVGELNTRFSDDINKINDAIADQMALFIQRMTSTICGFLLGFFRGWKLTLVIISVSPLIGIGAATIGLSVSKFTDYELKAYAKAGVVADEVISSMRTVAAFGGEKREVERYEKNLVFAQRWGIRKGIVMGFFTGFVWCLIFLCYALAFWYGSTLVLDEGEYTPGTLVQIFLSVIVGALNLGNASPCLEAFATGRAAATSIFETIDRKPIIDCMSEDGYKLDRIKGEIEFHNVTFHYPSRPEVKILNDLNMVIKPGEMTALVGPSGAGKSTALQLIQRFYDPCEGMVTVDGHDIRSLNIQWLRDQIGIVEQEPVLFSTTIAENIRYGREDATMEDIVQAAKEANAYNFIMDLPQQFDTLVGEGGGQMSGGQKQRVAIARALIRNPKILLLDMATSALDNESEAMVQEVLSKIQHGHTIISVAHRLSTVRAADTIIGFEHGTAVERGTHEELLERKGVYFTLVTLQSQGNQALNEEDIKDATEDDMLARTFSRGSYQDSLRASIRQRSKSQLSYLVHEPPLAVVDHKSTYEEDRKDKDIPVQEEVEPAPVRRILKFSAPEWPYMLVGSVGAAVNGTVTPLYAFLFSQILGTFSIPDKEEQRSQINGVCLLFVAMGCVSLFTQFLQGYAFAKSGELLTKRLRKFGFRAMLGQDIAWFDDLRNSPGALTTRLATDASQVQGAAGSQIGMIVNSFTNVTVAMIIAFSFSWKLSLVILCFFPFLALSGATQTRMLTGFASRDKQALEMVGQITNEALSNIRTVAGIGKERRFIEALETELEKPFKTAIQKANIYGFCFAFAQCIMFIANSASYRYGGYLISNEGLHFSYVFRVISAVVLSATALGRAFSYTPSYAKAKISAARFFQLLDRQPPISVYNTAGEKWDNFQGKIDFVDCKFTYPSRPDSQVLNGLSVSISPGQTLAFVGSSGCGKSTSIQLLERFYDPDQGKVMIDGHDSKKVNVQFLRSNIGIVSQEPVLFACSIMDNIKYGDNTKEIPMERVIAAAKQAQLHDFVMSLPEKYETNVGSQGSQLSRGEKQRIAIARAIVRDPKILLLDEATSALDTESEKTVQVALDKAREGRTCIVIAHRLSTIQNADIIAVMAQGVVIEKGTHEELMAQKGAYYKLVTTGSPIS
A short description of data set [14]: Ratio of drug concentration at steady state in human at 200 mg, po Q3h measured after 3 hrs to IC50 for human BSEP overexpressed in Sf9 insect cells. The data set is classed as ADME, organism-based. As to conditions: in vivo.
A short description of data set [15]: Ratio of drug concentration at steady state in human at 200 mg, po Q3h measured after 3 hrs to IC50 for human MRP3 overexpressed in Sf9 insect cells. The data set is classed as ADME, organism-based. To be noted: in vivo.
The nature of data set [16]: Ratio of drug concentration at steady state in human at 50 to 400 mg, po BID after 12 hrs to IC50 for human BSEP overexpressed in Sf9 insect cells. As to conditions: in vivo. The data set is classed as ADME, organism-based.
Data set [17] is described as follows: AUC in human at 50 to 400 mg, po BID after 12 hrs. The data set is classed as ADME, organism-based. To be noted: in vivo.
Data set [18] is described as follows: Drug concentration at steady state in human at 50 to 400 mg, po BID after 12 hrs. The data set is classed as ADME, organism-based. To be noted: in vivo, read-out: Css.
Data set [19] in a line: clinical. To be noted: human, in vivo, po.
A short description of data set [20]: Drug concentration at steady state in human at 200 to 1200 mg, po QD after 24 hrs. As to conditions: in vivo.
The nature of data set [21]: Ratio of drug concentration at steady state in human at 50 mg, po QD after 24 hrs to IC50 for human BSEP overexpressed in Sf9 insect cells. The data set is classed as ADME, organism-based. As to conditions: in vivo.
Data set [22] can be described thus: AUC in human at 50 mg, po QD after 24 hrs. To be noted: in vivo. The data set is classed as ADME, organism-based. More on the design: dose 50 mg, time < 24 hr, route oral.
A short description of data set [23]: Ratio of drug concentration at steady state in human at 50 mg, po QD after 24 hrs to IC50 for human MRP4 overexpressed in Sf9 insect cells. The data set is classed as ADME, organism-based. As to conditions: in vivo.
Data set [24] in a line: Drug concentration at steady state in human at 50 mg, po QD after 24 hrs. To be noted: in vivo, read-out: Css. The data set is classed as ADME, organism-based.
A short description of data set [25]: Ratio of drug concentration at steady state in human at 50 mg, po QD after 24 hrs to IC50 for human MRP3 overexpressed in Sf9 insect cells. The data set is classed as ADME, organism-based. To be noted: in vivo.
Data set [26] in a line: Ratio of drug concentration at steady state in human at 50 mg, po QD after 24 hrs to IC50 for human MRP2 overexpressed in Sf9 insect cells. The data set is classed as ADME, organism-based. To be noted: in vivo.

Take `CCOc1ccc(/C=C2\NCCc3cc(OCC)c(OCC)cc32)cc1OCC` [DROTAVERINE]: the half-inhibitory concentration (IC50) is 24.5 µM in data set [1], greater than 133 µM in [2] and greater than 133 µM in data set [3]. The compound further registered an AUC at 8 h in data set [4] of 8.18 µM·h. Besides, the concentration at 8 h in [5] came to 1020 nM. In addition, the values for the Ratio in [6] and in data set [7] were 0.028 and 0.042, respectively.

For the compound `COc1ccc(Cl)cc1C(=O)NCCc1ccc(S(=O)(=O)NC(=O)NC2CCCCC2)cc1` [GLYBURIDE], the IC50 is 10.5 µM in [1] and 33 µM in [3]. Besides, in data set [8], the concentration at 24 h was determined as 112 nM. The AUC at 24 h in [9] was 2.69 µM·h.

Take `CCN(CC)C(=O)/C(C#N)=C/c1cc(O)c(O)c([N+](=O)[O-])c1` [ENTACAPONE]: the AUC at 3 h in data set [10] came out at 5.29 µM·h. Besides, the Ratio in data set [11] was 0.259; in [14], 0.032; in data set [15] it was 0.05. Also, the IC50 in data set [1] was 6.8 µM; in data set [2] it was greater than 133 µM; in data set [3], 35.1 µM; in data set [13], 55.6 µM. Further, in data set [12], the concentration at 3 h came out at 1760 nM.

Turning to `C#C[C@]1(O)CC[C@H]2[C@@H]3CCC4=Cc5oncc5C[C@]4(C)[C@H]3CC[C@@]21C` [DANAZOL], the IC50 in [1] was greater than 133 µM; in data set [2] it was greater than 133 µM; in [3], greater than 133 µM; in data set [13] it was 18.7 µM. The Ratio in data set [16] is 0.024. The compound also displayed an exposure (AUC) at 12 h in [17] of 5.48 µM·h. The concentration at 12 h in data set [18] was 457 nM.

In the case of `CCCCc1oc2ccccc2c1C(=O)c1cc(I)c(OCCN(CC)CC)c(I)c1` [AMIODARONE], the IC50 in data set [1], in [2] and in data set [3] was greater than 133 µM in each case. The compound also displayed an AUC at 24 h in [19] of 32.7 µM·h. The concentration at 24 h in data set [20] was 1360 nM.

In the case of `CC(/C=C1\SC(=S)N(CC(=O)O)C1=O)=C\c1ccccc1`, the Ratio was determined as 0.01 in data set [21], 0.128 in data set [23], 0.018 in [25] and 0.01 in data set [26]. Further, the IC50 turned out to be 6.5 µM in [1], 84.4 µM in data set [2], 45.8 µM in data set [3] and 36.8 µM in data set [13]. In data set [22], the AUC at 24 h was found to be 20 µM·h. The concentration at 24 h in [24] worked out at 835 nM.
